Measurements: patent US20250170248A1, “SMARCA DEGRADERS AND USES THEREOF” (Kymera Therapeutics, Inc., priority 2021, published 2025)

Assays:
Type in all cases: cell-based
SMARCA2 [1] = target: T1, SMARCA2 (Homo sapiens, UniProt P51531); assay: MSD SMARCA2 degradation in A549 cell line; conditions: for Dmax: A549, A549 cells; for Dmax / DC50: 24 h; for DC50 / SMARCA2 MSD A549 degradation 24 h: Average Dmax %: A549 cells; for DC50: read-out: SMARCA2 MSD A549 degradation 24 h: Average external-Abs DC50
Summary of the method: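 A549 cells treated 24 h with compound, 3-fold series from 1000 nM. Lysates captured on MSD plates and SMARCA2 quantified with anti-SMARCA2 and SULFO-TAG secondary antibodies (electrochemiluminescence). DC50 and Dmax (% degradation at 24 h) reported as letter bins.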

SMARCA4 = target: T2, SMARCA4 (Homo sapiens, UniProt P51532); assay: SMARCA4 Western blot degradation in MV4-11 cells; conditions: for Dmax: MV4-11, MV4-11 cells, read-out: SMARCA4 MSD MV411 degradation 24 h: average Dmax %; for Dmax / DC50: 24 h; for DC50 / SMARCA4 MSD MV411 degradation 24 h: average Dmax %: MV4-11 cells; for DC50: read-out: SMARCA4 MSD MV411 degradation 24 h: Mean external-Abs DC50
T2 construct: SMARCA2/SMARCA4 protein degradation selectivity in MV4-11 cells; endogenous in cells; host or cells: MV4-11
Summary of the method: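 MV4-11 cells (4×10^6/well) treated with compound for 24 h, lysed in RIPA with protease/phosphatase inhibitors, and SMARCA2, SMARCA4 and beta-actin detected by Western blot with LI-COR readout. Values reported as letter-coded DC50, 24 h Dmax % and SMARCA2/4 selectivity fold.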

SMARCA2 [2] = target: T1, SMARCA2; assay: SMARCA2 Western blot degradation in MV4-11 cells; parameters: SMARCA2/SMARCA4 protein degradation selectivity in MV4-11 cells; endogenous in cells; host or cells: MV4-11; conditions: for Dmax: MV4-11, MV4-11 cells, read-out: SMARCA2 MSD MV411 degradation 24 h: average Dmax %; for Dmax / DC50 / SMARCA2 MSD MV411 degradation 24 h: average Dmax %: 24 h; for DC50 / Selectivity in MV411 / SMARCA2 MSD MV411 degradation 24 h: average Dmax %: MV4-11 cells; for DC50: read-out: SMARCA2 MSD MV411 degradation 24 h: Mean external-Abs DC50; for Selectivity in MV411: SMARCA2/4 selectivity

T2 sequence (P51532 whole entry): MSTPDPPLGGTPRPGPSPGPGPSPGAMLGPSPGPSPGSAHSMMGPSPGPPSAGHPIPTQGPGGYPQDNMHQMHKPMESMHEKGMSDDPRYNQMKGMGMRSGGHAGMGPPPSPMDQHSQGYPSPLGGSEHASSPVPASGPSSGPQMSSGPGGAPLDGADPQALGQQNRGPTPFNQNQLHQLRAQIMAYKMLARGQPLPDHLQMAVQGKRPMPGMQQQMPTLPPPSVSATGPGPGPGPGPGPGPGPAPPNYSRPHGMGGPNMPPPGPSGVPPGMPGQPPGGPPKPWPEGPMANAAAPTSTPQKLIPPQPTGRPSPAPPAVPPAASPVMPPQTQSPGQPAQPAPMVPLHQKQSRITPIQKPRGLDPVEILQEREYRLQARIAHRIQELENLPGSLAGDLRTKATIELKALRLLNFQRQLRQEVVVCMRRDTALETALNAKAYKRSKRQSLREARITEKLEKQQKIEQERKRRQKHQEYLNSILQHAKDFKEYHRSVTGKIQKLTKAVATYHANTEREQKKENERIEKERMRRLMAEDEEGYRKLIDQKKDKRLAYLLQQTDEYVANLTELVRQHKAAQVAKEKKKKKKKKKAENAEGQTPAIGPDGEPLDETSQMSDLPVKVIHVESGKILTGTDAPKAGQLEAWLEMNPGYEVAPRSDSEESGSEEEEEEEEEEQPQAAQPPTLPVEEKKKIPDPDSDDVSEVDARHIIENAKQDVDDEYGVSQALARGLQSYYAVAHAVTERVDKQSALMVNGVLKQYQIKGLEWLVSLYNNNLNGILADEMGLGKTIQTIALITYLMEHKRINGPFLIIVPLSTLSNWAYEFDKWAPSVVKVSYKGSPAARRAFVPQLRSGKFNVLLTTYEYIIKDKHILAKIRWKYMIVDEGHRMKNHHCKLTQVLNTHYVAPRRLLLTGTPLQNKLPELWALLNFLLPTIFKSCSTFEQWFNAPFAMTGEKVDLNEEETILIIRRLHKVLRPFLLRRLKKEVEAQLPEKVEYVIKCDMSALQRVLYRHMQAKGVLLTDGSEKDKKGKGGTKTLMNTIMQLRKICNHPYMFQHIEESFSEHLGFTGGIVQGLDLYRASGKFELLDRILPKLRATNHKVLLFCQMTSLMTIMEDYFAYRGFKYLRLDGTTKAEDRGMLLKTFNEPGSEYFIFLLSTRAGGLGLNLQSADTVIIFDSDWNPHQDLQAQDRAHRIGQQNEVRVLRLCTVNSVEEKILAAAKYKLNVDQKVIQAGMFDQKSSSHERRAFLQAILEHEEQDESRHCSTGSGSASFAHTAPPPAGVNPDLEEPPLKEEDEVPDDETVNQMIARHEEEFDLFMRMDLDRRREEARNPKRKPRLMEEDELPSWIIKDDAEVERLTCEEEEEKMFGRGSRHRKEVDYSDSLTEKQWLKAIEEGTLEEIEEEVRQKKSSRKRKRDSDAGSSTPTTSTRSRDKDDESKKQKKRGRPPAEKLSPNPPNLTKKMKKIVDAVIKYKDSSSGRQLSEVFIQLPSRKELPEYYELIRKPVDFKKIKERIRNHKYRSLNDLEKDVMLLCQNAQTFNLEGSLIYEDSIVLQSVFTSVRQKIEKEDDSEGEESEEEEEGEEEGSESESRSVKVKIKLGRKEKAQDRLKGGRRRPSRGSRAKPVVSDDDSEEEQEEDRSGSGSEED
T1 sequence (P51531 whole entry): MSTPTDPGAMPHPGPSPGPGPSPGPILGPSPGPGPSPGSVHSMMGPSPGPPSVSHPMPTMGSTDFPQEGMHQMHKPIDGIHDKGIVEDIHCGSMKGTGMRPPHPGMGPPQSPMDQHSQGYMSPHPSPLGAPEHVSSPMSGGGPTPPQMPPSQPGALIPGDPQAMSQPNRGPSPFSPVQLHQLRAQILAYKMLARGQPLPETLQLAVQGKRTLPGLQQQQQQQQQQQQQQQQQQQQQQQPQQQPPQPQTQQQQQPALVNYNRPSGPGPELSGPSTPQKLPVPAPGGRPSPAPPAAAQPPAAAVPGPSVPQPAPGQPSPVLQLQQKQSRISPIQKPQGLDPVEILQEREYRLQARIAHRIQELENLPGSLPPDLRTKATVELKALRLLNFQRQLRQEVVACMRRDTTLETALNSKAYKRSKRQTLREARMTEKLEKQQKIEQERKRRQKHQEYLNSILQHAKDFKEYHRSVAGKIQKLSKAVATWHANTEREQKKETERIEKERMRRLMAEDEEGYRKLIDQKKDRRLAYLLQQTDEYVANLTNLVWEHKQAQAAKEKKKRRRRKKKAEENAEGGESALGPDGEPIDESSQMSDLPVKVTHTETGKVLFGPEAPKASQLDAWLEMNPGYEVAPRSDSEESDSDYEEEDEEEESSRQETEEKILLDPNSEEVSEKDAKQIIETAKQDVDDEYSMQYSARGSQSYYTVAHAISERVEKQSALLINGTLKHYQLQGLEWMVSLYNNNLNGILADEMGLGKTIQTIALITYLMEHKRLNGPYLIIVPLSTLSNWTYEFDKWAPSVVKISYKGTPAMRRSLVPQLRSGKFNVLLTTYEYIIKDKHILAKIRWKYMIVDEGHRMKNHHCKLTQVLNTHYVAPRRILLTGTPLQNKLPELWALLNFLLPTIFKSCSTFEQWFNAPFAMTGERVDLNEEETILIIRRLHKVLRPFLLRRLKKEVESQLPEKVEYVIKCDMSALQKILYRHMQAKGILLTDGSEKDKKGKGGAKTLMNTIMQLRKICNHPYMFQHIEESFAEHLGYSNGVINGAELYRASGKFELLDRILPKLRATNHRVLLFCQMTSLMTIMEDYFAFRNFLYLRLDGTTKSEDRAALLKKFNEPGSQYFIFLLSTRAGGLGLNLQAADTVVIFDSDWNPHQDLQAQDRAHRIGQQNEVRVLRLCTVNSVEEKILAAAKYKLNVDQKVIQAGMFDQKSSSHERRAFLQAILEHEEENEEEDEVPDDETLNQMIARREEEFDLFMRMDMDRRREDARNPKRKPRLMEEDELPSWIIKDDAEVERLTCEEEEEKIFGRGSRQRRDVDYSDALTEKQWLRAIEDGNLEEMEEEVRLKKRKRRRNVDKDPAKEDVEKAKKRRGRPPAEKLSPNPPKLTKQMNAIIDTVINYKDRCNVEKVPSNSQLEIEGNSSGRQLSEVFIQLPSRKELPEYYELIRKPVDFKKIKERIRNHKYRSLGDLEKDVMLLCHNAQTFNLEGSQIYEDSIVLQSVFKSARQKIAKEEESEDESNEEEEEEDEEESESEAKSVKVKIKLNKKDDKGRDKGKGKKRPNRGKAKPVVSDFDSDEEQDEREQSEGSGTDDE

Dmax (SMARCA2 [1]) [%]	DC50 (SMARCA2 [1]) [nM]	Dmax (SMARCA4) [%]	DC50 (SMARCA4) [nM]	Dmax (SMARCA2 [2]) [%]	DC50 (SMARCA2 [2]) [nM]	Selectivity in MV411 (SMARCA2 [2])	SMARCA2 MSD A549 degradation 24 h: Average Dmax % (SMARCA2 [1])	SMARCA4 MSD MV411 degradation 24 h: average Dmax % (SMARCA4)	SMARCA2 MSD MV411 degradation 24 h: average Dmax % (SMARCA2 [2])	SMILES
> 90	< 10	< 50	> 100	70 to 90	1 to 10	A (A (>500 fold))	–	–	–	C#Cc1ccc([C@H](C)NC(=O)[C@@H]2C[C@@H](O)CN2C(=O)[C@@H](NC(=O)N2CC3(CC(N4CCC(c5cnc(N6CCc7[nH]c8nnc(-c9ccccc9O)cc8c7[C@H]6C)nc5)CC4)C3)C2)C(C)(C)CCO)cc1 [I-259]
> 90	10 to 50	> 90	10 to 100	> 90	1 to 10	C (C (10-100 fold))	–	–	–	C#Cc1ccc(CNC(=O)[C@@H]2C[C@@H](O)CN2C(=O)C(c2cc(N3CCC(CN4CCC(N5CCC(N6CCN7c8cc(-c9ccccc9O)nnc8NC[C@H]7C6)CC5)CC4)CC3)no2)C(C)C)c(Cl)c1 (stereo partly drawn) [I-325]
> 90	10 to 50	< 50	> 100	> 90	1 to 10	A (A (>500 fold))	–	–	–	Cc1ncsc1-c1ccc(CNC(=O)[C@@H]2C[C@@H](O)CN2C(=O)[C@@H](NC(=O)[C@H]2CC3(C2)C[C@H](N2CCC(c4ccnc(N5CCN6c7cc(-c8ccccc8O)nnc7NC[C@H]6C5)n4)CC2)C3)C(C)(C)C)cc1 (single isomer, unassigned) [I-5]
> 90	50 to 100	> 90	10 to 100	70 to 90	10 to 100	D (D (<10 fold))	–	–	–	C#Cc1ccc(CNC(=O)[C@@H]2C[C@@H](O)CN2C(=O)[C@@H](NC(=O)N2CC3(CC(N4CCN([C@H]5CC[C@H](N6CCc7[nH]c8nnc(-c9ccccc9O)cc8c7[C@H]6C)CC5)CC4)C3)C2)C(C)(C)C)cc1 [I-186]
> 90	10 to 50	> 90	1 to 10	> 90	1 to 10	D (D (<10 fold))	–	–	–	Cc1ncsc1-c1ccc(CNC(=O)[C@@H]2C[C@@H](O)CN2C(=O)C(c2cc(OCCN3CCC(N4CCC(c5cnc(N6CCc7[nH]c8nnc(-c9ccccc9O)cc8c7[C@H]6C)nc5)CC4)CC3)no2)C(C)C)cc1 (stereo partly drawn) [I-36]
> 90	10 to 50	> 90	1 to 10	> 90	< 1	C (C (10-100 fold))	–	–	–	COc1cc(C(C(=O)N2C[C@H](O)C[C@H]2C(=O)NCC#Cc2ccccc2OCCCCN2CCC(c3cnc(N4CCN5c6cc(-c7ccccc7O)nnc6NC[C@H]5C4)nc3)CC2)C(C)C)on1 (stereo partly drawn) [I-74]
> 90	50 to 100	70 to 90	10 to 100	> 90	1 to 10	C (C (10-100 fold))	–	–	–	C#Cc1ccc(CNC(=O)[C@@H]2C[C@@H](O)CN2C(=O)C(c2cc(OCCN3CCC(N4CCC(N5CCC(CN6CCN7c8cc(-c9ccccc9O)nnc8NC[C@H]7C6)CC5)CC4)CC3)no2)C(C)C)c(F)c1 (stereo partly drawn) [I-296]
–	50 to 100	–	> 100	–	10 to 100	B (B (>100-500 fold))	B (B (>70-90% degradation))	D (D (<50% degradation))	B (B (>70-90% degradation))	C#Cc1ccc(CNC(=O)[C@@H]2C[C@@H](O)CN2C(=O)[C@@H](NC(=O)[C@H]2CCC3(CC2)C[C@H](N2CCN(c4cnc(N5CCN6c7cc(-c8ccccc8O)nnc7NC[C@H]6C5)nc4)CC24CC4)C3)C(C)(C)C)cc1 (stereo partly drawn) [I-267]
> 90	< 10	> 90	1 to 10	> 90	< 1	C (C (10-100 fold))	–	–	–	Cc1ncsc1-c1ccc(CNC(=O)[C@@H]2C[C@@H](O)CN2C(=O)[C@@H](NC(=O)[C@H]2CC[C@@H](c3ccc(-c4cnc(N5CCN6c7cc(-c8ccccc8O)nnc7NC[C@H]6C5)nc4)cc3)CC2)C(C)(C)C)cc1 [I-86]
> 90	> 100	< 50	> 100	70 to 90	1 to 10	B (B (>100-500 fold))	–	–	–	C#Cc1ccc([C@H](C)NC(=O)[C@@H]2C[C@@H](O)CN2C(=O)[C@@H](NC(=O)[C@H]2CC3(C2)C[C@H](N2CCC(N4CCC(N5CCN6c7cc(-c8ccccc8O)nnc7NC[C@H]6C5)CC4)CC2)C3)C(C)(C)C)cc1 (single isomer, unassigned) [I-213]
–	50 to 100	–	> 100	–	1 to 10	C (C (10-100 fold))	A (A (>90% degradation))	C (C (50-70% degradation))	B (B (>70-90% degradation))	C#Cc1ccc(CNC(=O)[C@@H]2C[C@@H](O)CN2C(=O)[C@@H](NC(=O)[C@H]2CCC3(CC2)C[C@H](N2CCC(N(C)CCN4CCN5c6cc(-c7ccccc7O)nnc6NC[C@H]5C4)CC2)C3)C(C)(C)C)cc1 (single isomer, unassigned) [I-247]
–	< 10	–	> 100	–	1 to 10	C (C (10-100 fold))	A (A (>90% degradation))	C (C (50-70% degradation))	B (B (>70-90% degradation))	C#Cc1ccc(CNC(=O)[C@@H]2C[C@@H](O)CN2C(=O)[C@@H](NC(=O)[C@H]2CCC3(CC2)C[C@H](N2CCN(c4cnc(N5CCN6c7cc(-c8ccccc8O)nnc7NC[C@H]6C5)nc4)CC2)C3)C(C)(C)CCO)cc1 (single isomer, unassigned) [I-299]
> 90	> 100	< 50	> 100	70 to 90	10 to 100	B (B (>100-500 fold))	–	–	–	C#Cc1ccc(CNC(=O)[C@@H]2C[C@@H](O)CN2C(=O)[C@H](NC(=O)N2CC3(CC(N4CCC(c5cnc(N6CCc7[nH]c8nnc(-c9ccccc9O)cc8c7[C@H]6C)nc5)CC4)C3)C2)C(C)(C)CCN2CCOCC2)cc1 (single isomer, unassigned) [I-337]
> 90	> 100	< 50	> 100	70 to 90	1 to 10	A (A (>500 fold))	–	–	–	C#Cc1ccc(CNC(=O)[C@@H]2C[C@@H](O)CN2C(=O)[C@@H](NC(=O)C2CCC3(CC2)CC(N2CCC(N4CCC[C@@H](C(=O)N5CCN6c7cc(-c8ccccc8O)nnc7NC[C@H]6C5)C4)CC2)C3)C(C)(C)C)cc1 (single isomer, unassigned) [I-91]
–	> 100	–	> 100	–	10 to 100	C (C (10-100 fold))	A (A (>90% degradation))	D (D (<50% degradation))	B (B (>70-90% degradation))	Cc1ncsc1-c1ccc(CNC(=O)[C@@H]2C[C@@H](O)CN2C(=O)[C@@H](NC(=O)[C@H]2CC3(CC[C@H](N4CCN(c5cnc(N6CCc7[nH]c8nnc(-c9ccccc9O)cc8c7[C@H]6C)nc5)CC4)CC3)C2)C(C)(C)C)cc1 (single isomer, unassigned) [I-79]
